# Test results as given in patent US20250171744A1, “METHODS OF REPROGRAMMING SOMATIC CELLS AND MATERIALS RELATED THERETO” (CITY OF HOPE, priority 2019, published 2025).
# Legend:
# Format in all cases: cell-based, human
# [1] = tested on: HF57 cells; experiment: Transcriptomics (RNAseq) of MTX and PTX treated cells (FIG. 20); conditions: for pluripotency markers significantly enriched: compared to controls
# Description: RNAseq data validated that application of MTX and PTX affected C1 metabolism in the treated cells. […] The global transcriptional change across the groups compared was visualized by a volcano plot (FIGS. 20A-20B). Each data point in the scatter plot represents a gene. The log 2 fold change of each gene is represented on the x-axis and the log 10 of its adjusted p-value is on the y-axis. Genes with an adjusted p-value less than 0.05 and a log 2 fold change greater than 1 are indicated by red dots. […] Genes with an adjusted p-value less than 0.05 and a log 2 fold change less than −1 are indicated by green dots. […] Heat map visualization of the selected 67 differentially expressed genes. Original values are ln(x)-transformed. Rows are centered; unit variance scaling is applied to rows. Red indicates higher expression, whereas low expression indicated in green (FIG. 20C). For visual clarity, expression of selected genes is presented in groups based on their relative values (FIG. 20D).
# (§1) The quiescent nature of the MTX and PTX cells and the association of demethylation with the generation of induced pluripotent stem cells led to examining markers for stem cells formation. The 293T and HF57 cells were grown on 5% dialyzed FBS DMEM medium. DMEM without methionine, DMEM with 15 mg/L (half dose) and DMEM with 30 mg/L (regular DMEM) were used to grow the cells. Once the cells attained 70% confluency, HF57 were treated with 1-μM MTX or PTX and HEK293T were treated with 500 nM MTX or 1 μM PTX. The cells were treated with MTX or PTX for 7-days, and subsequently the medium was replaced with N2B27 medium (Thermo Fisher Scientific, USA). The cells were grown in N2B27 medium for 15 days which supported undifferentiated growth of human embryonic stem cells. Subsequently, these cells were maintained in MTeSR medium supplemented with sodium hypoxanthine and thymidine (HT) for 15 or more days. These conditions supported prolonged self-renewal of putative pluripotent cells, and they were able to form colonies and later embryoid bodies in vitro. Subsequently, the cells were assessed for markers linked to stem cells. Transcriptomics and qRT-PCR were performed to examine whether ES cell marker genes were expressed in these cells. Both MTX and PTX treated cells expressed the marker genes (FIGS. 20-21 and 25-26). […] To authenticate these findings, two key pluripotency markers (SSEA-4 and TRA 1-60) were examined using immunofluorescence.
# [2] = tested on: HF57 cells; experiment: qRT-PCR relative transcript levels (FIG. 21B, FIG. 32); conditions: for transcripts level of DNMT1 / transcripts level of MTHFR / transcripts level of MTR / relative transcripts level of Nanog / relative transcripts level of Oct4 / relative transcripts level of Sox2: FIG. 21B; for relative transcripts level of Nanog / relative transcripts level of Oct4 / relative transcripts level of Sox2: vs control cells
# Experimental: Also, the cells were treated with PTX for 2-days only. Since exposure time of PTX or MTX is very critical for gene expression or other genetic changes, the expression of ANOS could be higher after prolonged exposure to PTX.
# To validate microarray results, quantitative 2-step RT-PCR was performed. One microgram of total RNA was reverse transcribed to first-strand cDNA with the Qiagen cDNA Synthesis Kit (Qiagen), and this cDNA was subsequently used as a template for quantitative PCR with gene-specific primers. The ubiquitous β-actin gene served as a control for constitutive gene expression. The quantitative RT-PCR (qRT-PCR) reactions were performed using Power Sybr Green PCR Master Mix (Thermo Fisher Scientific) on a CFX96 Touch Real-Time PCR Detection System (Bio-Rad, Hercules, CA, USA). Relative expression levels (2^−ΔCt) were calculated according to the Livak and Schmittgen method (40). Expression levels of each gene were compared with the expression level of actin.
# as §1
# [3] = tested on: MTX/PTX treated and SSEA4 positive cells; experiment: Cardiomyocyte marker expression in cardiomyocytes differentiation medium (FIG. 31)
# Experimental: MTX/PTX treated and SSEA4 positive cells were maintained on Matrigel-coated 6-well plates in mTeSR1 medium. To induce differentiation, cells with EB-like morphology were dissociated with Accutase (Invitrogen) at 37° C. for 5 minutes and then single cell suspension was seeded onto a Matrigel-coated cell-culture dish at 100,000 cell/cm^2 in mTeSR1 supplemented with 5 μM ROCK inhibitor (Y-27632) for 24 hours. The cells then were cultured in mTeSR1 medium, which was changed daily. Next, 8 μl of 36 mM CHIR99021 were added into 24 ml RPMI/B27-insulin medium to make 12 μM CHIR99021 RPMI/B27-insulin medium and 2-ml of this were added to each well after the old mTeSR1 medium was removed. Exactly 24 hours after adding CHIR, the medium was replaced with 2 ml room temperature RPMI/B27-insulin. The plate was put back into the 37° C., 5% CO2 incubator. 72 hours post addition of CHIR99021, 1 ml medium from each well was removed and the remaining 1-ml was supplemented with 1-ml RPMI/B27-insulin with 5 μM IWP2 (WNT pathway inhibitor). After 48 hours, the medium was replaced with fresh RPMI/B27-insulin and this was incubated at 37° C., 5% CO2 incubator. After this, every 2-days, the old medium was removed from each well of the 12-well plate and 2 ml/well room temperature RPMI/B27 medium was added and incubated at 37° C., 5% CO2. Spontaneous contraction should occur by day 14 and spontaneous beating can be maintained for several weeks. […] The expression of the key cardiomyocyte markers, Nkx2, which is an early cardiac transcriptional factor, indicative of cardiac progenitor phenotype, and cTNT, which is cardiac troponin T, a muscle contractility regulatory protein, indicative of a mature cardiac phenotype, were tested.
SMILES,LIN28A enrichment compared to controls [1],NANOG enrichment compared to controls [1],SOX2 enrichment compared to controls [1],one carbon-metabolism and DNA methylation related genes significantly down-regulated [1],one carbon-metabolism and DNA methylation related genes upregulated [1],pluripotency markers significantly enriched [1],transcripts level of DNMT1 [2],transcripts level of MTHFR [2],transcripts level of MTR [2],relative transcripts level of Nanog [2],relative transcripts level of Oct4 [2],relative transcripts level of Sox2 [2],expression of Nkx2 [3],expression of cTNT [3],expression of ANKRD1 ([2]; treated for 2-days),expression of ANOS ([2]; treated for 2-days)
"CN(Cc1cnc2nc(N)nc(N)c2n1)c1ccc(C(=O)N[C@@H](CCC(=O)O)C(=O)O)cc1 [MTX, methotrexate]",6 fold,6 fold,5 fold,about 41 genes,9 genes,about 50,significantly reduced,significantly reduced,significantly reduced,significantly higher,significantly higher,significantly higher,significantly up-regulated,significantly up-regulated,–,–
"Nc1nc2[nH]cc(CCc3ccc(C(=O)N[C@@H](CCC(=O)O)C(=O)O)cc3)c2c(=O)[nH]1 [PTX, pemetrexed]",6 fold,6 fold,5 fold,about 41 genes,9 genes,about 50,significantly reduced,significantly reduced,significantly reduced,significantly higher,significantly higher,significantly higher,significantly up-regulated,significantly up-regulated,significantly higher than control,significantly higher than control
